Experiments:
[1] = system: MDA-MB-435 tumor; assay: Small-animal PET of MDA-MB-435 tumor-bearing mice; details: female, athymic nude, mouse, in vivo, iv
Protocol: The MDA-MB435 tumor model was established by orthotopic injections of 5×10^6 cells into the right mammary fat pad of female athymic nude mice. […] The mice were subjected to microPET studies when the tumor volume reached 100-300 mm^3 (2-3 weeks for MDA-MB-435, and 4-5 wk for T47D).
For static PET, 5-min scans were acquired at 30 min, 1 h, and 2 h after injection. For dynamic PET, 30-min scans (1×30 s, 4×1 min, 1×1.5 min, 4×2 min, 5×3 min; total 15 frames) were started 1 min after injection, and two 5-min static PET images were also acquired at 1 h and 2 h after injection. The images were reconstructed using a two-dimensional ordered subsets expectation maximum (OSEM) algorithm and no correction was applied for attenuation or scatter. […] For each small-animal PET scan, regions of interest (ROIs) were drawn over the tumor, normal tissue, and major organs using vendor software ASI Pro 5.2.4.0 on decay-corrected whole-body coronal images. The maximum radioactivity concentrations (accumulation) within a tumor or an organ were obtained from mean pixel values within the multiple ROI volume, and were converted to megabecquerels per milliliter per minute using a conversion factor. These values were then divided by the administered activity to obtain (assuming a tissue density of 1 g/ml) an image ROI-derived percent injected dose per gram (% ID/g).
Quantification of tumor and major organ activity accumulation in the microPET scans was realized by measuring the regions of interest (ROIs) that encompassing the entire organ on the coronal images.

[2] = in vivo; set-up: species or system mice; details: female, BALB/c, mouse, iv, 3.7 MBq, total radioactivity
Protocol: The 4T1 murine breast cancer cell line was purchased from American Type Culture Collection and grown in RMPI 1640 medium (Invitrogen Corp.) supplemented with 10% (v/v) fetal bovine serum (Invitrogen) at 37° C. with 5% CO2. The 4T1 tumor model was generated by subcutaneous injection of 5×10^6 tumor cells into the left front flank of female normal BALB/c mice (Harlan).
Five-minute static PET images were then acquired at 2 h after injection (n=3/group).

CSCC[C@H](NC(=O)[C@H](CC(C)C)NC(=O)[C@H](Cc1c[nH]cn1)NC(=O)CNC(=O)[C@@H](NC(=O)[C@H](C)NC(=O)[C@H](Cc1c[nH]c2ccccc12)NC(=O)[C@H](CCC(N)=O)NC(=O)CCCCCNC(=O)CC[C@H](NC(=S)Nc1ccc(C[C@H]2CN(CC(=O)O)CCN(CC(=O)O)CCN2CC(=O)O)cc1)C(=O)NCCCC[C@@H]1NC(=O)[C@@H](Cc2ccc(O)cc2)NC(=O)[C@H](CC(=O)O)NC(=O)CNC(=O)[C@H](CCCNC(=N)N)NC1=O)C(C)C)C(N)=O [^64Cu-NOTA-RGD-BBN, metal not drawn]
MDA-MB-435 tumor uptake ([1]; 1 h): 1.84 ± 0.44 % ID/g | MDA-MB-435 tumor uptake ([1]; 2 h): 1.47 ± 0.19 % ID/g | tissue uptake at 2 h [2]: 1.88 ± 0.28 %ID/g
